A compilation of properties of binary mixtures (doi:10.1016/j.molliq.2016.09.077)

Test: xn = mol fraction of the nth substance listed
Conditions: 100 kPa

CC[n+]1ccn(C)c1.O=S(=O)([N-]S(=O)(=O)C(F)(F)F)C(F)(F)F + CCOC(C)=O
Conditions	speed of sound [m/s]	viscosity [mPa·s]
298.15 K, x2 = 0	1240.2	32.49
298.15 K, x2 = 0.0986	1232.6	25
298.15 K, x2 = 0.1858	1225.5	20.15
298.15 K, x2 = 0.2977	1215.3	14.83
298.15 K, x2 = 0.3962	1203.4	10.88
298.15 K, x2 = 0.5051	1189.2	7.63
298.15 K, x2 = 0.5961	1180.3	5.44
298.15 K, x2 = 0.6909	1171.1	3.77
298.15 K, x2 = 0.7974	1158.2	2.24
298.15 K, x2 = 0.8979	1147.7	0.93
303.15 K, x2 = 0	1229.3	27.68
303.15 K, x2 = 0.0986	1221.4	21.28
303.15 K, x2 = 0.1858	1213.9	17.32
303.15 K, x2 = 0.5051	1175.9	6.47
303.15 K, x2 = 0.6909	1155.8	3.31
308.15 K, x2 = 0.0986	1210.4	18.31
308.15 K, x2 = 0.1858	1202.6	14.96
308.15 K, x2 = 0.3962	1178.5	8.3
308.15 K, x2 = 0.5051	1162.7	5.78
308.15 K, x2 = 0.5961	1151.7	4.15
308.15 K, x2 = 0.6909	1139.5	2.78
308.15 K, x2 = 0.7974	1123.4	1.63
308.15 K, x2 = 0.8979	1109	0.83
313.15 K, x2 = 0	1207.9	20.16
313.15 K, x2 = 0.0986	1199.5	15.97
313.15 K, x2 = 0.1858	1191.4	13.01
313.15 K, x2 = 0.2977	1179.8	9.91
313.15 K, x2 = 0.5961	1137.9	3.71
313.15 K, x2 = 0.6909	1124.4	2.48
313.15 K, x2 = 0.7974	1106.4	1.47
313.15 K, x2 = 0.8979	1089.8	0.8
318.15 K, x2 = 0	1197.3	17.48
318.15 K, x2 = 0.0986	1188.6	14
318.15 K, x2 = 0.2977	1168.3	8.8
318.15 K, x2 = 0.5961	1123.8	3.27
318.15 K, x2 = 0.6909	1109.4	2.3
318.15 K, x2 = 0.7974	1089.2	1.29
323.15 K, x2 = 0	1187	15.34
323.15 K, x2 = 0.0986	1178.9	12.36
323.15 K, x2 = 0.1858	1169.7	10.19
323.15 K, x2 = 0.2977	1156.8	7.87
323.15 K, x2 = 0.3962	1142.5	5.82
323.15 K, x2 = 0.5051	1124	3.9
323.15 K, x2 = 0.5961	1110	2.94
323.15 K, x2 = 0.7974	1071.9	1.16
323.15 K, x2 = 0.8979	1051.6	0.7

CCOC(C)=O + CC[n+]1ccn(C)c1.O=S(=O)([N-]S(=O)(=O)C(F)(F)F)C(F)(F)F
x1 = 1
Conditions	speed of sound [m/s]	viscosity [mPa·s]
298.15 K	1140.8	0.42
308.15 K	1096	0.38
313.15 K	1073.7	0.36
318.15 K	1051.7	0.35
323.15 K	1029.5	0.33

CO + CC[n+]1ccn(C)c1.O=S(=O)([N-]S(=O)(=O)C(F)(F)F)C(F)(F)F
x1 = 1
Conditions	speed of sound [m/s]	viscosity [mPa·s]
303.15 K	1086.9	0.51
313.15 K	1054.5	0.45
323.15 K	1022.5	0.41

CC[n+]1ccn(C)c1.O=S(=O)([N-]S(=O)(=O)C(F)(F)F)C(F)(F)F + CO
Conditions	speed of sound [m/s]	viscosity [mPa·s]
298.15 K, x2 = 0	1240.2	32.49
298.15 K, x2 = 0.0938	1236.3	26.33
298.15 K, x2 = 0.1965	1231.5	20.39
298.15 K, x2 = 0.2889	1225.3	15.83
298.15 K, x2 = 0.4005	1217.3	11.82
298.15 K, x2 = 0.5088	1207.8	8.77
298.15 K, x2 = 0.6909	1177.9	4.64
298.15 K, x2 = 0.7961	1159.9	2.86
298.15 K, x2 = 0.8978	1132.9	1.55
303.15 K, x2 = 0	1229.3	27.68
303.15 K, x2 = 0.0938	1225.2	22.39
303.15 K, x2 = 0.1965	1220.1	17.79
303.15 K, x2 = 0.2889	1214.2	13.73
303.15 K, x2 = 0.4005	1206.3	10.47
303.15 K, x2 = 0.5088	1196.7	7.7
303.15 K, x2 = 0.5988	1183.4	5.82
303.15 K, x2 = 0.6909	1166.9	4.25
303.15 K, x2 = 0.7961	1147.4	2.61
303.15 K, x2 = 0.8978	1120.1	1.43
308.15 K, x2 = 0	1218.5	23.29
308.15 K, x2 = 0.0938	1214.6	19.27
308.15 K, x2 = 0.1965	1208.9	15.16
308.15 K, x2 = 0.2889	1203.2	12.01
308.15 K, x2 = 0.5088	1185.5	6.82
308.15 K, x2 = 0.5988	1172.4	5.22
308.15 K, x2 = 0.6909	1154.9	3.84
308.15 K, x2 = 0.7961	1135.5	2.37
313.15 K, x2 = 0	1207.9	20.16
313.15 K, x2 = 0.0938	1203.9	16.71
313.15 K, x2 = 0.1965	1197.9	13.25
313.15 K, x2 = 0.2889	1192.3	10.57
313.15 K, x2 = 0.5988	1161.2	4.65
313.15 K, x2 = 0.7961	1122.7	2.16
313.15 K, x2 = 0.8978	1094.6	1.22
318.15 K, x2 = 0	1197.3	17.48
318.15 K, x2 = 0.0938	1193.3	14.63
318.15 K, x2 = 0.2889	1181.6	9.38
318.15 K, x2 = 0.4005	1173.4	7.26
318.15 K, x2 = 0.5088	1163.5	5.47
318.15 K, x2 = 0.5988	1150.2	4.22
318.15 K, x2 = 0.6909	1131.2	3.13
318.15 K, x2 = 0.7961	1110.4	1.98
318.15 K, x2 = 0.8978	1082	1.13
323.15 K, x2 = 0	1187	15.34
323.15 K, x2 = 0.0938	1182.8	12.94
323.15 K, x2 = 0.1965	1176.2	10.42
323.15 K, x2 = 0.2889	1170.9	8.38
323.15 K, x2 = 0.4005	1162.8	6.56
323.15 K, x2 = 0.5088	1152.6	4.94
323.15 K, x2 = 0.5988	1139.3	3.86
323.15 K, x2 = 0.6909	1119.6	2.87
323.15 K, x2 = 0.8978	1069.4	1.05
